Values joined by “and” are separate entries in the source; they are usually repeats but may differ in a detail not shown here. Equal entries are not always repeated.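 A five-concentration, 48-hour dose response in 96-well plates underlies each endpoint, interpolated linearly between surrounding concentrations. GI50 marks 50% less growth.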 Active and inactive are the calls of the source. No stated cut-off is given here; in the data, active = GI50 up to about 1.1 µM and inactive = higher.
Experiments:
Assay in all cases: NCI tumour cell line growth inhibition, 48 h
[1] = tested on: 786-0
[2] = tested on: A498
[3] = tested on: A549
[4] = tested on: ACHN
[5] = tested on: BT-549
[6] = tested on: CAKI-1
[7] = tested on: CCRF-CEM
[8] = tested on: COLO 205
[9] = tested on: DU-145
[10] = tested on: EKVX
[11] = tested on: HCC 2998
[12] = tested on: HCT-116
[13] = tested on: HCT-15
[14] = tested on: HL-60
[15] = tested on: HOP-62
[16] = tested on: HOP-92
[17] = tested on: HT-29
[18] = tested on: Hs-578T
[19] = tested on: IGROV-1
[20] = tested on: K562
[21] = tested on: KM12
[22] = tested on: LOX IMVI
[23] = tested on: M14
[24] = tested on: MCF7
[25] = tested on: MDA-MB-231
[26] = tested on: MDA-MB-435
[27] = tested on: MDA-N
[28] = tested on: MOLT-4
[29] = tested on: Malme-3M
[30] = tested on: NCI-H226
[31] = tested on: NCI-H23
[32] = tested on: NCI-H460
[33] = tested on: NCI-H522
[34] = tested on: NCI/ADR-RES
[35] = tested on: OVCAR-3
[36] = tested on: OVCAR-4
[37] = tested on: OVCAR-5
[38] = tested on: OVCAR-8
[39] = tested on: PC-3
[40] = tested on: RPMI-8226
[41] = tested on: RXF 393
[42] = tested on: SF-268
[43] = tested on: SF-295
[44] = tested on: SF-539
[45] = tested on: SK-MEL-28
[46] = tested on: SK-MEL-2
[47] = tested on: SK-MEL-5
[48] = tested on: SK-OV-3
[49] = tested on: SN12C
[50] = tested on: SNB-19
[51] = tested on: SNB-75
[52] = tested on: SR
[53] = tested on: SW-620
[54] = tested on: T47D
[55] = tested on: TK-10
[56] = tested on: U-251
[57] = tested on: UACC-257
[58] = tested on: UACC-62
[59] = tested on: UO-31
[60] = tested on: DLD-1
[61] = tested on: DMS-273
[62] = tested on: XF498

In the case of CO/N=C(\C)c1ccc(Nc2c3ccccc3nc3occc23)cc1, the GI50 [1] is reported as 0.74 µM (active), the GI50 [2] is reported as 0.773 µM (active) and the GI50 [3] is reported as 0.643 µM (active). For the same compound, the GI50 [4] was 0.568 µM (active), the GI50 [5] was 0.845 µM (active) and the GI50 [6] was 0.318 µM (active). The GI50 [7] was 0.47 µM (active), the GI50 [8] was 0.302 µM (active) and the GI50 [9] was 1.07 µM (active). For the same compound, the GI50 [10] was 3.74 µM (inactive), the GI50 [11] was 0.322 µM (active) and the GI50 [12] was 0.374 µM (active). For the same compound, the GI50 [13] was 0.191 µM, the GI50 [14] was 0.254 µM (active) and the GI50 [15] was 1.27 µM (inactive). For the same compound, the GI50 [16] was 12.9 µM (inactive), the GI50 [17] was 0.284 µM (active) and the GI50 [18] was 0.482 µM (active). The GI50 [19] was 0.233 µM (active), the GI50 [20] was 0.195 µM (active) and the GI50 [21] was 0.201 µM (active). The GI50 [22] was 0.59 µM (active), the GI50 [23] was 0.397 µM (active) and the GI50 [24] was 0.168 µM (active). The GI50 [25] was 0.741 µM (active), the GI50 [26] was 0.0451 µM (active) and the GI50 [27] was 0.0855 µM (active). The GI50 [28] was 0.366 µM (active), the GI50 [29] was 0.313 µM (active) and the GI50 [30] was 4.34 µM (inactive). The GI50 [31] was 2.36 µM (inactive), the GI50 [32] was 0.426 µM (active) and the GI50 [33] was < 0.0317 µM (active). For the same compound, the GI50 [34] was 0.181 µM (active), the GI50 [35] was 0.284 µM (active) and the GI50 [36] was 0.902 µM (active). For the same compound, the GI50 [37] was 4.08 µM (inactive), the GI50 [38] was 0.841 µM (active) and the GI50 [39] was 0.527 µM (active). The GI50 [40] was 0.429 µM (active), the GI50 [41] was 0.0813 µM (active) and the GI50 [42] was 0.718 µM (active). The GI50 [43] was 0.207 µM (active), the GI50 [44] was 0.383 µM (active) and the GI50 [45] was 1.43 µM (inactive). For the same compound, the GI50 [46] was 0.244 µM (active), the GI50 [47] was 0.323 µM (active) and the GI50 [48] was 1.16 µM (inactive). The GI50 [49] was 1.4 µM (inactive), the GI50 [50] was 2.05 µM (inactive) and the GI50 [51] was 0.41 µM (active). The GI50 [52] was 0.0373 µM (active), the GI50 [53] was 0.33 µM (active) and the GI50 [54] was 0.522 µM (active). The GI50 [55] was 1.21 µM (inactive), the GI50 [56] was 0.522 µM (active) and the GI50 [57] was 14.3 µM (inactive). The GI50 [58] was 0.38 µM (active) and the GI50 [59] was 2.42 µM (inactive).
With CCC/C=C/C=C/C(=O)OC1/C(=C/C(=O)OC)CC2CC(C(C)O)OC(=O)CC(O)CC3CC(OC(C)=O)C(C)(C)C(O)(CC4C/C(=C/C(=O)OC)CC(/C=C/C(C)(C)C1(O)O2)O4)O3 (stereo unspecified) the GI50 [1] was 6.25 µM (inactive), the GI50 [2] was 4.18 µM (inactive) and the GI50 [4] was 3.34 µM (inactive). The GI50 [5] was 8.57 µM (inactive), the GI50 [60] was > 10.9 µM (inactive) and the GI50 [61] was 10.6 µM (inactive). The GI50 [9] was > 12.5 µM (inactive), the GI50 [18] was 6.07 µM (inactive) and the GI50 [23] was > 11 µM (inactive). For the same compound, the GI50 [25] was 6.22 µM (inactive), the GI50 [26] was 8.47 µM (inactive) and the GI50 [27] was 7.53 µM (inactive). The GI50 [30] was > 12.5 µM (inactive), the GI50 [31] was 9.89 µM (inactive) and the GI50 [33] was > 12.5 µM (inactive). The GI50 [37] was > 12.5 µM (inactive), the GI50 [39] was 5.32 µM (inactive) and the GI50 [40] was 9.98 µM (inactive). The GI50 [42] was 6.95 µM (inactive), the GI50 [44] was > 12.5 µM (inactive) and the GI50 [45] was 9.98 µM (inactive). For the same compound, the GI50 [50] was > 12.5 µM (inactive), the GI50 [52] was > 12.5 µM (inactive) and the GI50 [54] was 7.01 µM (inactive). The GI50 [55] was > 12.5 µM (inactive) and the GI50 [62] was 3.62 µM (inactive).
For C/C=C(\C)C(=O)OC1C2C(C)C(=O)OC2C(O)C(C)C2C=CC(=O)C21C (stereo unspecified), the GI50 [1] was 12.1 µM (inactive), the GI50 [2] was 16.1 µM (inactive) and the GI50 [3] was 17.8 µM (inactive). The GI50 [4] was 12.3 µM (inactive), the GI50 [5] was 7.5 µM (inactive) and the GI50 [6] was 13 µM (inactive). The GI50 [7] was 3.06 µM (inactive), the GI50 [8] was 12.7 µM (inactive) and the GI50 [9] was 10.9 µM (inactive). The GI50 [10] was 11.7 µM (inactive), the GI50 [11] was 13.3 µM (inactive) and the GI50 [12] was 9.59 µM (inactive). For the same compound, the GI50 [13] was 10.6 µM, the GI50 [14] was 3.24 µM (inactive) and the GI50 [15] was 18.2 µM (inactive). For the same compound, the GI50 [16] was 13.4 µM (inactive), the GI50 [17] was 15.2 µM (inactive) and the GI50 [18] was 13.3 µM (inactive). The GI50 [19] was 8.69 µM (inactive), the GI50 [20] was 2.96 µM (inactive) and the GI50 [21] was 11.1 µM (inactive). The GI50 [22] was 13.2 µM (inactive), the GI50 [23] was 14.9 µM (inactive) and the GI50 [24] was 7.85 µM (inactive). The GI50 [25] was 3.69 µM (inactive), the GI50 [26] was 12.9 µM (inactive) and the GI50 [27] was 8.81 µM (inactive). The GI50 [28] was 8.47 µM (inactive), the GI50 [29] was 12.6 µM (inactive) and the GI50 [30] was 16.9 µM (inactive). For the same compound, the GI50 [31] was 10.4 µM (inactive), the GI50 [32] was 4.49 µM (inactive) and the GI50 [33] was 2.69 µM (inactive). The GI50 [34] was 14.6 µM (inactive), the GI50 [35] was 10.8 µM (inactive) and the GI50 [36] was 16.9 µM (inactive). The GI50 [37] was 19.5 µM (inactive), the GI50 [38] was 11.9 µM (inactive) and the GI50 [39] was 16.8 µM (inactive). The GI50 [40] was 4.61 µM (inactive), the GI50 [41] was 8.73 µM (inactive) and the GI50 [42] was 18.6 µM (inactive). The GI50 [43] was 14.7 µM (inactive), the GI50 [44] was 9.27 µM (inactive) and the GI50 [45] was 14.1 µM (inactive). For the same compound, the GI50 [46] was 17.8 µM (inactive), the GI50 [47] was 7.46 µM (inactive) and the GI50 [48] was 16.6 µM (inactive). For the same compound, the GI50 [49] was 14.9 µM (inactive), the GI50 [50] was 13.2 µM (inactive) and the GI50 [51] was 15.8 µM (inactive). For the same compound, the GI50 [52] was 2.18 µM (inactive), the GI50 [53] was 14 µM (inactive) and the GI50 [54] was 16.7 µM (inactive). The GI50 [55] was 12.5 µM (inactive), the GI50 [56] was 11.5 µM (inactive) and the GI50 [57] was 12.7 µM (inactive). For the same compound, the GI50 [58] was 10.5 µM (inactive) and the GI50 [59] was 14.8 µM (inactive).
In the case of O=c1[nH]c(=O)n([C@H]2C[C@H](O)[C@@H](CO)O2)cc1F [FLOXURIDINE], the GI50 [61] is reported as 0.319 µM (active) and the GI50 [37] is reported as 103 µM (inactive) and > 89.9 µM (inactive).

Source: ChEMBL document CHEMBL1201862, “PubChem BioAssay data set” (2004)
